# Read-outs that look alike come from different tables or passages of the source.
# How the values were obtained:
# [1] = tested on: various allergens (Japanese cedar pollen, mite, ragweed, timothy, peanut, milk); assay: Immunostimulatory effect on various allergens by sublingual administration (allergen-specific IgG titer); type: in vivo, mouse; settings: allergen-sensitized mice, sublingual with allergen, up to 12 weeks; all the allergens; compared with allergen alone
# Description: The compound described in Example 2(2e) was used to study its immunostimulatory effect on various allergens by sublingual administration.
# Japanese cedar pollen antigen extracts were prepared by treating Japanese cedar pollen (Yamizo Pollen Study Group) with a solution containing 0.125 M NaHCO3 and 0.5 M NaCl for 24 hours (4° C.), and then insoluble matter was removed by filtration. The concentration of Cry j 1 contained in the extracts was measured, and the extracts were diluted into 12.5 μg/mL (10000 JAU/mL). Allergen scratch extracts (Torii Pharmaceutical Co., Ltd.) were used as mite, ragweed, timothy, peanut, and milk. Allergen sensitization was performed by intramuscularly administering the allergen (20 μL) to the mouse femoral region 1 week before the start of sublingual administration. The allergen scratch extracts of mite, ragweed, timothy, peanut, or milk were diluted 10-fold with PBS and used in allergen sensitization. Sublingual administration was started from 1 week after sensitization. […]
# Each allergen was added at 25 μL/well (Japanese cedar pollen, 1 μg Cry j 1/mL; mite, ragweed, timothy, peanut, and milk, 1:1000 diluted) to a plate for ELISA, which was then left standing overnight at 4° C. […] Then, 30 μL of a TMB stop solution was added to each well, and absorbance at 450 nm was measured. […]
# [2] = tested on: SARS-CoV-2 RBD; settings: mouse, in vivo
# [3] = target: human TLR4 (Homo sapiens, UniProt O00206+Q9Y6Y9); assay: Human TLR4 activating effect (HEK-Blue Human TLR4 Cells, SEAP reporter); type: cell-based; settings: 24 hours, SEAP Protein concentration
# Description: The human TLR4 activating effect was studied using the compounds described in Examples 1 to 17 and monophosphoryl lipid A as Comparative Example A.
# Triethanolamine was dissolved at 0.5% (v/v) in injectable distilled water to prepare an aqueous triethanolamine solution. 1 mg of each test drug was dissolved in 0.98 mL of the aqueous triethanolamine solution, and pH of the solution was then adjusted to 7.2 to 7.4 by the addition of 20 μL of 1 M HCl to prepare a 1 mg/mL solution. A dilution series of the test drug was prepared using a medium [DMEM (Nacalai Tesque, Inc.), 10% FBS (Sigma-Aldrich Co. LLC), 50 U/mL penicillin-50 μg/mL streptomycin (Thermo Fisher Scientific Inc.), 1×HEK-Blue Selection (InvivoGen), and 100 μg/mL Normocin (InvivoGen)]. 2×10^5 cells/mL HEK-Blue™ Human TLR4 Cells (InvivoGen) were inoculated to each well of a 96-well microplate for tissue culture (Iwaki), then treated with the test drug, and cultured at 37° C. for 24 hours under 5% CO2. The cells thus cultured were centrifuged at 400×g at 4° C. for 3 minutes. Recombinant SEAP Protein (InvivoGen) was used for a calibration curve. After addition of 180 μL of QUANTI-Blue (InvivoGen) to each well of 96 Well TC-Treated Microplates (Corning, Inc.), 20 μL each of the cell culture supernatant and a standard diluting solution was added to each well, and the plate was left standing at 37° C. for 4 hours. After reaction, absorbance (wavelength: 655 nm) was measured using a microplate reader (PerkinElmer, Inc., EnSpire), and a SEAP Protein concentration was calculated from the calibration curve and used as an index for TLR4 agonist activity. A drug concentration that induced reaction corresponding to 50% of the maximum reaction was calculated as EC50 (ng/mL) from a linear expression using two drug concentrations between which the drug concentration that induced reaction corresponding to 50% of the maximum reaction in each experiment was positioned, and measured values thereof.
# [4] = read-out: EC50 (ng/ml) (converted)
# Sequence of human TLR4 (O00206 24-839): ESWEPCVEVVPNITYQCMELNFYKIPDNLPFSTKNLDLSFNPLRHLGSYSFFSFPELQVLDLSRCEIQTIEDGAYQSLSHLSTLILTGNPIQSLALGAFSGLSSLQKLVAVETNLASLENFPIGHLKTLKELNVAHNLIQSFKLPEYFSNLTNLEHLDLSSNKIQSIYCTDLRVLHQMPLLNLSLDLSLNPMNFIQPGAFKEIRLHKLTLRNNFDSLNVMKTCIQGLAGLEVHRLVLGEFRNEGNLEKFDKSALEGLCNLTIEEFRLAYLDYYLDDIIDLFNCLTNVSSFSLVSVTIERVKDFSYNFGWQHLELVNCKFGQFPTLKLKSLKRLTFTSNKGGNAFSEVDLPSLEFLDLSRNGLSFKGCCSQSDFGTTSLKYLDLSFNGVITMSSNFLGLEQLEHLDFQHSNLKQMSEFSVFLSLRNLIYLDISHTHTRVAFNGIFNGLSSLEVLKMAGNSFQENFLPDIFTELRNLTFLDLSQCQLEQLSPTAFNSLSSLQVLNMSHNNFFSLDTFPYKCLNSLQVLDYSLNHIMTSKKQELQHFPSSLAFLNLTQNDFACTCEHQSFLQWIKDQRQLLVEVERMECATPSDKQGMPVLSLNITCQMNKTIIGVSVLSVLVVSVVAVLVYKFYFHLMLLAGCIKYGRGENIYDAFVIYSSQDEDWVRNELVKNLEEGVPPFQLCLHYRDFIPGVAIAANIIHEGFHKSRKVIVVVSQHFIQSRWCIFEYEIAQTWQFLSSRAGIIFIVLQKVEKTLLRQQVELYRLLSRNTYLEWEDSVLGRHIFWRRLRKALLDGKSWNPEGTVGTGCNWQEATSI
# Sequence of human TLR4 (Q9Y6Y9 17-160 limits assumed): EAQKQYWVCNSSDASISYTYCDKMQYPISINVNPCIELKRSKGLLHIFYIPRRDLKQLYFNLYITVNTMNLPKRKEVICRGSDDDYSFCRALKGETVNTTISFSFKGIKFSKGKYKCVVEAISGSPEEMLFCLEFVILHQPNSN
Compound,"EC50 [3, 4] [nM]",also measured
"CCCCCCCCCCC[C@H](CC(=O)N[C@@H](CO[C@@H]1O[C@H](CO[C@]2(C(=O)O)C[C@@H](O)[C@@H](O)[C@@H]([C@H](O)CO)O2)[C@@H](OP(=O)(O)O)[C@H](OC(=O)C[C@@H](CCCCCCCCCCC)OC(=O)CCCCCCCCC)[C@H]1NC(=O)C[C@@H](CCCCCCCCCCC)OC(=O)CCCCCCCCC)CC(=O)O)OC(=O)CCCCCCCCC [Example 2(2e), Ammonium (3R)-3-{[(3R)-3-(decanoyloxy)tetradecanoyl]amino}-4-({3-O-[(3R)-3-(decanoyloxy)tetradecanoyl]-2-{[(3R)-3-(decanoyloxy)tetradecanoyl]amino}-2-deoxy-6-O-(3-deoxy-α-D-manno-oct-2-ulopyranonosyl)-4-O-phosphono-β-D-glucopyranosyl}oxy)butanoate]",0.0499,allergen-specific IgG titer in blood [1]: markedly higher; anti-RBD IgA in blood [2]: markedly high; anti-RBD IgA in nasal wash [2]: induced at a high level; anti-RBD IgG in blood [2]: markedly high
"CCCCCCCCCCC[C@H](CC(=O)NC1C(CC[C@H](NC(=O)C[C@@H](CCCCCCCCCCC)OC(=O)CCCCCCCCC)C(=O)O)OC(COC2(C(=O)O)CC(O)C(O)C([C@H](O)CO)O2)C(OP(=O)(O)O)C1OC(=O)C[C@@H](CCCCCCCCCCC)OC(=O)CCCCCCCCC)OC(=O)CCCCCCCCC (stereo partly drawn) [Example 14(14d), Ammonium 5,9-anhydro-7-O-[(3R)-3-(decanoyloxy)tetradecanoyl]-2,6-bis{[(3R)-3-(decanoyloxy)tetradecanoyl]amino}-2,3,4,6-tetradeoxy-10-O-(3-deoxy-α-D-manno-oct-2-ulopyranonosyl)-8-O-phosphono-D-erythro-L-galacto-decanoate]",0.188,
"CCCCCCCCCCC[C@H](CC(=O)NC1C(CC[C@H](NC(=O)C[C@@H](CCCCCCCCCCC)OC(=O)CCCCCCCCC)C(=O)O)OC(COC2(C(=O)O)CC(OC3(C(=O)O)CC(O)C(O)C([C@H](O)CO)O3)C(O)C([C@H](O)CO)O2)C(OP(=O)(O)O)C1OC(=O)C[C@@H](CCCCCCCCCCC)OC(=O)CCCCCCCCC)OC(=O)CCCCCCCCC (stereo partly drawn) [Example 15(15d), Ammonium 3-deoxy-α-D-manno-oct-2-ulopyranonosyl-(2-+4)-3-deoxy-α-D-manno-oct-2-ulopyranonosyl-(2-+10)-5,9-anhydro-7-O-[(3R)-3-(decanoyloxy)tetradecanoyl]-2,6-bis{[(3R)-3-(decanoyloxy)tetradecanoyl]amino}-2,3,4,6-tetradeoxy-8-O-phosphono-D-erythro-L-galacto-decanoate]",0.4,
"CCCCCCCCCCC[C@H](CC(=O)NC1C(CC[C@H](NC(=O)C[C@@H](CCCCCCCCCCC)OC(=O)CCCCCCCCC)C(=O)O)OC(CF)C(OP(=O)(O)O)C1OC(=O)C[C@@H](CCCCCCCCCCC)OC(=O)CCCCCCCCC)OC(=O)CCCCCCCCC (stereo partly drawn) [Example 16(16b), Ammonium 5,9-anhydro-7-O-[(3R)-3-(decanoyloxy)tetradecanoyl]-2,6-bis{[(3R)-3-(decanoyloxy)tetradecanoyl]amino}-2,3,4,6,10-pentadeoxy-10-fluoro-8-O-phosphono-D-erythro-L-galacto-decanoate]",1.01,
"CCCCCCCCCCC[C@H](CC(=O)NC1C(CC[C@H](NC(=O)C[C@@H](CCCCCCCCCCC)OCCCCCCCCCC)C(=O)O)OC(CO)C(OP(=O)(O)O)C1OC(=O)C[C@@H](CCCCCCCCCCC)OCCCCCCCCCC)OCCCCCCCCCC (stereo partly drawn) [Example 17(17h), Ammonium 5,9-anhydro-7-O-[(3R)-3-(decyloxy)tetradecanoyl]-2,6-bis{[(3R)-3-(decyloxy)tetradecanoyl]amino}-2,3,4,6-tetradeoxy-8-O-phosphono-D-erythro-L-galacto-decanoate]",0.969,
"monophosphoryl lipid A [Comparative Example A, reference compound]",,EC50 [3]: >0.01 µg/mL
